# Assay results published in US20090203705A1, “Spiro Compounds As NPY Y5 Receptor Antagonists” (priority 2008, published 2009).
# Structures can show the parent of a compound that is named as a salt.
# Target: T1, human NPY Y5 receptor (Homo sapiens, UniProt Q15761)
# T1 construct: expressed in transfected cells; host or cells: HEK293 (cell line HEK 293 signal-hNPY Y5/G16z49)
# T1 sequence (Q15761 1-445): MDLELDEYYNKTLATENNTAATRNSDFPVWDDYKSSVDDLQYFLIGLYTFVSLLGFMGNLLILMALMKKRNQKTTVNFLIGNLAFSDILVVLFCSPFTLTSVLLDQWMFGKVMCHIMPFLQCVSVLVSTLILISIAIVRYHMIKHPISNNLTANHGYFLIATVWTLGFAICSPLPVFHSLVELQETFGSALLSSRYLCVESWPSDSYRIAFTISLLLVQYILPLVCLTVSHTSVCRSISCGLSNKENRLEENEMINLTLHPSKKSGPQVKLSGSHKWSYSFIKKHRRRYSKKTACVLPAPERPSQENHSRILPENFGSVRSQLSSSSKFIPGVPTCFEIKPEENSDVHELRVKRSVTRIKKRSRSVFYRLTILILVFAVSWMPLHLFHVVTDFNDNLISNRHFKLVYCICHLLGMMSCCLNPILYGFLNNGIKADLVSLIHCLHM
# Test: FLIPR/Ca2+ functional activity at recombinant human NPY Y5 receptor
# Format: cell-based
# Details: HEK 293 signal-hNPY Y5/G16z49 cells; inhibition of calcium release by PYY at EC80; Cheng-Prusoff; read-out: fpKi
# Description: The functional activity of the compounds of the invention for the NPY Y5 receptor may be determined by the FLIPR/Ca^2+ assay as described below. Such potency is typically calculated from the IC50 obtained in FLIPR experiments as the concentration of a compound necessary to decrease 50% of the calcium release following cells exposure to a concentration of PYY eliciting 80% response (i.e. EC80), and is reported as a “fKi” value calculated by the following equation: […]
# where EC80 and EC50 corresponding to the agonist (PYY) concentrations that eliciting 80% and 50% response, respectively (corresponding to the Cheng and Prusoff equation). In the context of the present invention pfKi values (corresponding to the […] of fKi) are used instead of fKi; pfKi results are only estimated to be accurate to about 0.3-0.5.
# The functional activity at the human NPY Y5 receptor stably expressed in HEK293 cells was assessed using FLIPR/Ca^2+ methodology (cell line name: HEK 293 signal-hNPY Y5/G16z49). The assay is configured to re-direct receptor-mediated signalling to the calcium release from intracellular stores via the promiscuous Gal 6z49 protein. PYY (peptide YY) is an endogenous agonist and can activate the receptor, thereupon causing an increase in the level of calcium in the cells sensed by Fluo4-AM and measured by FLIPR. Antagonist effects are monitored by the blockade or decrease in calcium release once cells co-expressing hNPY Y5 receptor and Ga16z49 are exposed to a concentration of PYY eliciting 80% response (i.e. EC80). A non-linear, 4 parameter logistic curve-fit of the data generated pIC50 value. Applying the Cheng-Prusoff equation to antagonist concentration-response for inhibition of fixed PYY concentration yielded the fpKi values.
# Cells are cultured in DMEM/F12 supplemented with 10% FBS, 2 mM Glutamine, 200 μg/ml hygromycin B and 500 μg/ml G418. The day before a FLIPR experiment, cells are plated out into 384-well Poly-D-Lysine coated FLIPR plates at a density of 200'000 cells/ml corrects to give 10'000 cells per 50 μL per well using medium without antibiotics. On the day of experiment, cells are washed with an assay buffer containing 20 mM HEPES/NaOH, 145 mM NaCl, 5 mM KCl, 1 mM MgCl2, 2 mM CaCl2, 1 g/L D-glucose and 2.5 mM probenecid, pH 7.3 and loaded with 2 μM Fluo-4 AM for 60 min at 37° C. and 5% CO2. The excess of dye solution is removed by washing cells with buffer. Compound solutions, prepared by serially diluting compounds in neat DMSO and then a final 1:50 dilution step in assay buffer added with 0.05% pluronic acid, are added and incubated with the loaded cells for 30 min at 37° C. and 5% CO2.
# Cells are then put in the FLIPR for the stimulus addition corresponding to a concentration of PYY eliciting 80% of the response. The response of cells to the agonist is fast and measured for 2 min after PYY addition.
row,Ki,Molecule
1,≤ 0.1 nM,"O=C1O[C@]2(CC[C@H](CNc3ccc(-c4cc(F)cc(F)c4)nn3)CC2)CN1c1cccnn1 [Example 4-3, (Trans)-8-({[6-(3,5-difluorophenyl)-3-pyridazinyl]amino}methyl)-3-(3-pyridazinyl)-1-oxa-3-azaspiro[4.5]decan-2-one Dihydrochloride]"
2,≤ 0.316 nM,"O=C1O[C@]2(CC[C@H](CNc3ccc(-c4ccccc4F)nn3)CC2)CN1c1cccnc1F [Example 4-7, (Trans)-8-({[6-(2-fluorophenyl)-3-pyridazinyl]amino}methyl)-3-(2-fluoro-3-pyridinyl)-1-oxa-3-azaspiro[4.5]decan-2-one Hydrochloride]"
3,≤ 1 nM,"O=C1O[C@]2(CC[C@H](CNc3ccc(-c4ccccc4)nn3)CC2)CN1c1cccnn1 [Example 4-38, (Trans)-8-{[(6-phenyl-3-pyridazinyl)amino]methyl}-3-(3-pyridazinyl)-1-oxa-3-azaspiro[4.5]decan-2-one Dihydrochloride]"
4,≤ 0.1 nM,"O=C1O[C@]2(CC[C@H](CNc3ccc(-c4cccc(C(F)(F)F)c4)nn3)CC2)CN1c1cccnn1 [Example 4-40, (Trans)-3-(3-pyridazinyl)-8-[({6-[3-(trifluoromethyl)phenyl]-3-pyridazinyl}amino)methyl]-1-oxa-3-azaspiro[4.5]decan-2-one Hydrochloride]"
5,≤ 0.1 nM,"Cc1cc(N2C[C@]3(CC[C@@H](CNc4ccc(-c5ccccc5C)nn4)CC3)OC2=O)ccn1 [Example 4-39, (Trans)-8-({[6-(2-methylphenyl)-3-pyridazinyl]amino}methyl)-3-(2-methyl-4-pyridinyl)-1-oxa-3-azaspiro[4.5]decan-2-one Dihydrochloride]"
6,≤ 0.1 nM,"O=C1O[C@]2(CC[C@H](CNc3ccc(Oc4ccccc4OC(F)(F)F)nn3)CC2)CN1c1cccnn1 [Example 4-56, (Trans)-3-(3-pyridazinyl)-8-({[6-({2-[(trifluoromethyl)oxy]phenyl}oxy)-3-pyridazinyl]amino}methyl)-1-oxa-3-azaspiro[4.5]decan-2-one]"

# Same assay, conditions: assay not given; towards NPY Y5 receptor
row,activity at the highest concentration set by the experiment,Molecule
1,don't show activity,"Cl.O=C1OC2(CCC(CNc3nsc4ccccc34)CC2)CN1c1cccnn1 (stereo not drawn) [Example 5-5, (Trans)-8-[(1,2-benzisothiazol-3-ylamino)methyl]-3-(3-pyridazinyl)-1-oxa-3-azaspiro[4.5]-decan-2-one Hydrochloride]"
2,don't show activity,"CC(C)(C)OCCOc1ccc(NCC2CCC3(CC2)CN(c2cccnn2)C(=O)O3)nn1.Cl.Cl (stereo not drawn) [Example 4-10, (Trans)-8-({[6-({2-[(1,1-dimethylethyl)oxy]ethyl}oxy)-3-pyridazinyl]amino}methyl)-3-(3-pyridazinyl)-1-oxa-3-azaspiro[4.5]decan-2-one dihydrochloride]"
3,don't show activity,"Cl.Cl.O=C1O[C@]2(CC[C@H](CNc3ccc(N4CCOCC4)nc3)CC2)CN1c1ccccn1 [Example 1-57, (Trans)-8-({[6-(4-morpholinyl)-3-pyridinyl]amino}methyl)-3-(2-pyridinyl)-1-oxa-3-azaspiro[4.5]decan-2-one.dihydrochloride]"
4,don't show activity,"O=C1OC2(CCC(CNc3ncc(Br)cn3)CC2)CN1c1ccccn1 (stereo not drawn) [Example 3-7, (Trans)-8-{[(5-bromo-2-pyrimidinyl]amino}methyl)-3-(2-pyridinyl)-1-oxa-3-azaspiro[4.5]decan-2-one]"
5,don't show activity,"Cl.Cl.O=C1OC2(CCC(CNc3ccc(C(F)(F)F)nc3)CC2)CN1c1cccnc1 (stereo not drawn) [Example 1-55, (Trans)-3-(3-pyridinyl)-8-({[6-(trifluoromethyl)-3-pyridinyl]amino}methyl)-1-oxa-3-azaspiro[4.5]decan-2-one Dihydrochloride]"
6,don't show activity,"O=C1OC2(CCC(CNc3ccc(Cl)nn3)CC2)CN1c1ccccn1 (stereo not drawn) [Example 4-12, (Trans)-8-{[(6-chloro-3-pyridazinyl)amino]methyl}-3-(2-pyridinyl)-1-oxa-3-azaspiro[4.5]-decan-2-one]"
7,don't show activity,"Cn1ccnc1-c1cnc(NCC2CCC3(CC2)CN(c2ccccn2)C(=O)O3)nc1 (stereo not drawn) [Example 3-6, (Trans)-8-({[5-(1-methyl-1H-imidazol-2-yl)-2-pyrimidinyl]amino}methyl)-3-(2-pyridinyl)-1-oxa-3-azaspiro[4.5]decan-2-one]"
8,don't show activity,"Cl.O=C1OC2(CCC(CNc3nccc(OCc4ccccc4)n3)CC2)CN1c1cccnn1 (stereo not drawn) [Example 3-12, (Trans)-8-[({4-[(phenylmethyl)oxy]-2-pyrimidinyl}amino)methyl]-3-(3-pyridazinyl)-1-oxa-3-azaspiro[4.5]decan-2-one hydrochloride]"
9,don't show activity,"O=C1OC2(CCC(CNc3ncc(-c4ccnnc4)cn3)CC2)CN1c1ccccn1 (stereo not drawn) [Example 3-9, (Trans)-8-({[5-(4-pyridazinyl)-2-pyrimidinyl]amino}methyl)-3-(2-pyridinyl)-1-oxa-3-azaspiro[4.5]decan-2-one]"
10,don't show activity,(Trans)-8-({[4-(1-pyrimidinyl)-2-pyrimidinyl]amino}methyl)-3-(3-pyridazinyl)-1-oxa-3-azaspiro[4.5]decan-2-one Dihydrochloride [Example 3-11]
11,don't show activity,"Cl.O=C1OC2(CCC(CNc3cc(-c4ccccc4)ccn3)CC2)CN1c1cccnn1 (stereo not drawn) [Example 1-39, (Trans)-8-{[(4-phenyl-2-pyridinyl)amino]methyl}-3-(3-pyridazinyl)-1-oxa-3-azaspiro[4.5]decan-2-one hydrochloride]"
